Usually Ki stands for a measure of affinity in units of concentration, obtained from inhibition or displacement.

The target of assay [1] is T1, glucocorticoid receptor (GR) (Homo sapiens, UniProt P04150).
T1 sequence (P04150 1-777): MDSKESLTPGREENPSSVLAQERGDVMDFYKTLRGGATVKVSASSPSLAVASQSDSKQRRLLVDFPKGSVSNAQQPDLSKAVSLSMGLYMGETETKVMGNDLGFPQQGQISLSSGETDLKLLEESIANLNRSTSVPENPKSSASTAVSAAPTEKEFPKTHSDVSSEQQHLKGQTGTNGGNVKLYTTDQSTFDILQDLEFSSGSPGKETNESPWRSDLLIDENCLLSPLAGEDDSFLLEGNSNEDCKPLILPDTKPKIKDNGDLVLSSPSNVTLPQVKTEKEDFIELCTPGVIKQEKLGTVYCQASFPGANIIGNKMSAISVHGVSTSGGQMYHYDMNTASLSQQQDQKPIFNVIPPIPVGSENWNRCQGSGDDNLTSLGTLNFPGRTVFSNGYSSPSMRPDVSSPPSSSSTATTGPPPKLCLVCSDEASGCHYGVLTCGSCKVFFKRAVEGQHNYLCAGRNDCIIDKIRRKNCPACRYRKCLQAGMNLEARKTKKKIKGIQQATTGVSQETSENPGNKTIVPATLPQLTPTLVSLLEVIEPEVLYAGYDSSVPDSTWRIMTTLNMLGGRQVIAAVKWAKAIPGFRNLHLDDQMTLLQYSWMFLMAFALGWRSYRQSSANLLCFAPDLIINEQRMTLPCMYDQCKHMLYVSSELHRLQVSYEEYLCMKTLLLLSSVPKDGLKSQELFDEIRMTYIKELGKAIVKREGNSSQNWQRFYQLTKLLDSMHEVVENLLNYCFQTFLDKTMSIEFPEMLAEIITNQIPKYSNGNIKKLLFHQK
In words: Ligand binding assay (GR BIND), 3H-dexamethasone displacement in MDA-MB-453 cell lysate. Particulars: GR BIND Ki, Table 1.

The target in a further assay is T2, Glucocorticoid Receptor (Homo sapiens, UniProt P04150).
T2 construct: These cells express large amount of the GR and are very responsive to GC treatment; endogenous in cells; host or cells: A549 cells transiently transfected with the MMTV-LUC reporter
T2 sequence (P04150 1-777): T1 sequence (P04150 1-777)
In words: Trans-Activation Modulation of Glucocorticoid Receptor (GRAMMER), MMTV-LUC reporter gene in A549 cells. Particulars: Table 1; for Emax: A549, A549 cells, Emax relative to 300 nM dexamethasone, read-out: Transactivation A549 Cells GRAMMER Emax; for EC50: inflection point, A549 cells, read-out: Transactivation A549 Cells GRAMMER IP. Format: cell-based. An excerpt: Trans-Activation Modulation of Glucocorticoid Receptor (GRAMMER)
This assay assesses the ability of test compounds to control transcription from the MMTV-LUC reporter gene in lung adenocarcinoma A549 cells or MDA-MB-453 cells, a human breast cancer cell line that naturally expresses the human GR. The assay measures induction of a modified MMTV LTR/promoter linked to the LUC reporter gene.
The routine transient assay consists of plating 7,000-25,000 cells/well of a white, clear-bottom 96-well plate. Alternatively, 384-well plates can be used at a cell concentration of 10,000/well. The media that the cells are plated in is “exponential growth medium” which consists of phenol red-free RPMI1640 containing 10% FBS, 4 mM L-glutamine, 20 mM HEPES, 10 ug/mL human insulin, and 20 ug/mL gentamicin. Incubator conditions are 37° C. and 5% CO2. The transfection is done in batch mode. The cells are trypsinized and counted to the right cell number in the proper amount of fresh media. It is then gently mixed with the FuGene6/DNA mix and plated onto the 96 or 384-well plate, all the wells receive 100 uL or 40 uL, respectively, of medium+lipid/DNA complex then incubated 37° C. overnight. The transfection cocktail consists of serum-free OptiMEM, FuGene6 reagent and DNA. The manufacturer's (Roche Biochemical) protocol for cocktail setup is as follows: The lipid to DNA ratio is approximately 2.5:1 and the incubation time is 20 min at room temperature. Sixteen to 24 hours after transfection, the cells are treated with dexamethasone to a final concentration of 10 nM as well as the compound of interest, such that final DMSO (vehicle) concentration is equal to or less than 1%. Each plate also contains samples that are treated with 10 nM dexamethasone alone, which is used as the 100% activity control. The cells are exposed to the compounds for 24 hours. After 24 hours, the cells are lysed by a Promega cell culture lysis buffer for approximately 30 min and then the luciferase activity in the extracts is assayed in the 96-well format luminometer. In 384-well format, Steady-Glo (Promega) or Steady-Lite (PerkinElmer) can be used by adding an equal volume of reagent to the media present in each well. Activity induced by 10 nM dexamethasone alone is set at 100% activity. Antagonist activity is calculated by determining the decrease in dexamethasone-induced activity in response to compound treatment relative to samples that were treated with dexamethasone alone. […] This transactivation assay can be performed in an agonist and antagonist mode to identify these different activities.
Activity of test compounds is calculated as the Emax relative to the activity obtained with 300 nM dexamethasone. Activity of test compounds is calculated as the Emax relative to the activity obtained with 300 nM DEX. […] The action of compounds is also tested in an antagonist mode (Anti-GRAMMER) in which the cells are treated with medium containing an agonist such as 10 nM DEX and the ability to agents to inhibit the activation by an agonist is measured.
In general terms: A reporter such as luciferase makes a cellular process visible.

The next assay addresses T3, human GR (Homo sapiens, UniProt P04150).
T3 construct: U937 cells contain an endogenous glucocorticoid receptor (GR); endogenous in cells; host or cells: U937 cells stably transfected with the TNF-alpha promoter/beta-lactamase reporter
T3 sequence (P04150 1-777): T1 sequence (P04150 1-777)
Briefly: Transrepression Assay (GITAR), TNFα-β-lactamase reporter gene in U937 cells. The assay is classed as cell-based. Particulars: for GITAR Greater than by GRAMMER % SEP: GITAR Emax minus GRAMMER Emax; for EC50: inflection point, U937 cells, read-out: Transrepression U937 Cells GITAR IP. An excerpt: Transrepression Assay (GITAR)
This assay assesses the ability of test compounds to control transcription from the TNFα-β-lactamase reporter gene in U937 cells, a human myelomonocytic leukemia cell line that naturally expresses the human GR. The assay measures compound dependent-repression of the TNFa promoter linked to a reporter gene.
The human U937 cells that had been stablely transfected with the TNF-α promoter driving β-lactamase are used for this assay. U937 cells contain an endogenous glucocorticoid receptor (GR). Cells are maintained in RPMI 1640 Growth medium (Gibco Cat#11875-093) containing 25 mM HEPES, 10% FBS, 2 mM L-Glutamine, 1 mM Sodium pyruvate, 25 μg/ml Gentamicin (Gibco Cat#15710-064), 1:1000 2-Mercaptoethanol (Gibco Cat#21985-023) and 0.8 mg/ml G418 (Gibco Cat#10131-027). The density of the cells in the flask needs to be about 1×10^6−3×10^6/ml at the time of harvest. Usually, the cells are split to 1.2˜1.4×10^5/ml (1:10) 3 days prior to the assay. 50,000 cells/well are plated in 96 well black-walled plates the day of assay. Test compounds are added 10 pt/well, and cells are incubated at 37° C. for 30-45 min. For assaying compounds, first dilute 1:10 in DMSO to make 1 mM, then further dilute 1:100 in medium to make 10× stock prior to adding to the cells. Add 50 ng/ml PMA (Sigma, cat# P8139) 10 μL/well to a final concentration 5 ng/ml, and 1 μg/ml LPS (Sigma, cat# L4130) 10 μL/well to a final concentration 100 ng/ml. Incubate cells at 37° C. overnight for ˜18 hr. PMA is stored frozen as 100 μg/ml stock in DMSO. Dilute 1:10 in DMSO for a working stock of 10 μg/ml and store at −20C. For assaying, dilute the […] working stock 1:200 in medium to make a 10× solution (50 ng/ml). Store frozen LPS at 1 mg/ml in PBS, dilute 1:1000 in medium to make 10× (1 μg/ml) for the assay. Add 6× loading buffer (CCF2−AM) 20 μL/well, and incubate at room temperature for 70-90 min. […] The activity repressed by 100 nM dexamethasone alone is set as 100% activity.

The mark [2] stands for this setting: U-937, U937 cells, activity repressed by 100 nM dexamethasone = 100%, Table 1, read-out: Transrepression U937 Cells GITAR Emax.
[3] abbreviates: U-937, text statement, 100 nM dexamethasone = 100%, read-out: maximal activity in the transrepression assay (GITAR).

Like-named read-outs stand apart in the source and are kept apart here.

As to `CCCN(C(=O)[C@H]1CCC2=Cc3c(cnn3-c3ccc(F)cc3)C[C@@]21C)C(C)CC` (stereo partly drawn) [Compound 16, (4αR,5S)-N-(sec-butyl)-1-(4-fluorophenyl)-4α-methyl-N-propyl-1,4,4α,5,6,7-hexahydrocyclopenta[f]indazole-5-carboxamide], the Ki in assay [1] was 2.8 nM. Also, the Emax at Glucocorticoid Receptor is 33.8%; at human GR (setting [2]) it was 61.8%; at human GR (setting [3]) it was above 5%. Besides, the figures for the EC50 on Glucocorticoid Receptor and on human GR (Table 1) were 184 nM and 376 nM, respectively. In addition, the “GITAR Greater than by GRAMMER % SEP” value at human GR (Table 1) was found to be 28.1%.

With `CC1CN(C(=O)[C@H]2CCC3=Cc4c(cnn4-c4ccc(F)cc4)C[C@@]32C)CC(C)O1` (stereo partly drawn) [Compound 17, (4αR,5S)-5-[(2,6-dimethylmorpholin-4-yl)carbonyl]-1-(4-fluorophenyl)-4α-methyl-1,4,4α,5,6,7-hexahydrocyclopenta[f]indazole], the Ki in assay [1] turned out to be 43.6 nM. The Emax was 9.4% on Glucocorticoid Receptor, 11.8% at human GR (setting [2]) and above 5% at human GR (setting [3]). The EC50 on Glucocorticoid Receptor worked out at 526 nM; on human GR (Table 1), 1830 nM. Besides, the “GITAR Greater than by GRAMMER % SEP” value at human GR (Table 1) came out at 2.3%.

For the molecule `C[C@]12Cc3cnn(-c4ccc(F)cc4)c3C=C1CC[C@@H]2C(=O)N1CCCC1CCc1ccccc1` (stereo partly drawn) [Compound 19, (4αR,5S)-1-(4-fluorophenyl)-4α-methyl-5-{[2-(2-phenylethyl)pyrrolidin-1-yl]carbonyl}-1,4,4α,5,6,7-hexahydrocyclopenta[f]indazole], in assay [1], the affinity corresponds to a Ki of 4.5 nM. The Emax was 4% at Glucocorticoid Receptor, 10.2% at human GR (setting [2]) and above 5% on human GR (setting [3]). The results for the EC50 at Glucocorticoid Receptor and at human GR (Table 1) were 1690 nM and 4260 nM, respectively. Also, the “GITAR Greater than by GRAMMER % SEP” value at human GR (Table 1) stood at 6.2%.

The molecule `C[C@]12Cc3cnn(-c4ccc(F)cc4)c3C=C1CC[C@@H]2C(=O)N1CCCC(CCc2ccccc2)C1` (stereo partly drawn) [Compound 20, (4αR,5S)-1-(4-fluorophenyl)-4α-methyl-5-{[3-(2-phenylethyl)piperidin-1-yl]carbonyl}-1,4,4α,5,6,7-hexahydrocyclopenta[f]indazole] displayed a Ki in assay [1] of 3.1 nM. The values for the Emax on Glucocorticoid Receptor, on human GR (setting [2]) and on human GR (setting [3]) were 3.6%, 11% and above 5%, respectively. For the same molecule, the EC50 on Glucocorticoid Receptor is 1.3 nM; at human GR (Table 1), 693 nM. At human GR (Table 1), the “GITAR Greater than by GRAMMER % SEP” value is 7.4%.

Molecule `C[C@]12Cc3cnn(-c4ccc(F)cc4)c3C=C1CC[C@@H]2C(=O)N1CCCC(Cc2cccc(C(F)(F)F)c2)C1` (stereo partly drawn) [Compound 21, (4αR,5S)-1-(4-fluorophenyl)-4α-methyl-5-({3-[3-(trifluoromethyl)benzyl]piperidin-1-yl}carbonyl)-1,4,4α,5,6,7-hexahydrocyclopenta[f]indazole] showed a Ki in assay [1] of 2.3 nM. Moreover, the Emax at Glucocorticoid Receptor was 26.2%; on human GR (setting [2]) it was 28.1%; at human GR (setting [3]) it was above 5%. In addition, the results for the EC50 on Glucocorticoid Receptor and at human GR (Table 1) were 569 nM and 742 nM, respectively. Further, the “GITAR Greater than by GRAMMER % SEP” value on human GR (Table 1) worked out at 1.9%.

In assay [1], `C[C@]12Cc3cnn(-c4ccc(F)cc4)c3C=C1CC[C@@H]2C(=O)N1CCCCC1Cc1ccccc1` (stereo partly drawn) [Compound 22, (4αR,5S)-5-[(2-benzylpiperidin-1-yl)carbonyl]-1-(4-fluorophenyl)-4α-methyl-1,4,4α,5,6,7-hexahydrocyclopenta[f]indazole] had a Ki of 4.8 nM. In addition, the Emax at Glucocorticoid Receptor was 5.5%; on human GR (setting [2]), 17.3%; at human GR (setting [3]) it was above 5%. For the same molecule, the figures for the EC50 at Glucocorticoid Receptor and on human GR (Table 1) were 386 nM and 1970 nM, respectively. Also, at human GR (Table 1), the “GITAR Greater than by GRAMMER % SEP” value was found to be 11.7%.

Values taken from US8338472B2, “Hexahydrocyclopentyl[F]indazole carboxamides and derivatives thereof as selective glucocorticoid receptor modulators” (Merck Sharp & Dohme Corp., priority 2008, dated 2012).
